Measured values taken from patent publication US7223773B2, “4-oxoquinolizine antibacterial agent having 2-pyridone skeleton as partial structure” (Salo Pharmaceutical Co., Ltd., priority 2001, dated 2007).
Converted amounts (≈) assume the structure as drawn.

Experiments:
Assay type in all cases: cell-based
[1] = system: Bacillus subtilis JCM 2499; assay: in vitro antibacterial activity, agar plate dilution method (MIC); conditions: JCM2499, read-out: Antimicrobial spectrum MIC
Description: (§1) The in vitro antibacterial activities of the compounds provided by the present invention were tested by a standard method of Chemotherapy Society of Japan, i.e. an agar plate dilution method disclosed in CHEMOTHERAPY Vol. 29, pages 76–79, 1981, and the activities of them on anaerobic bacteria were tested by a method disclosed in CHEMOTHERAPY Vol. 27, 559–590, 1979. The results were shown in terms of the minimum inhibition concentration (MIC, μg/ml) for the growth of the bacteria.

[2] = system: Branhamella catarrhalis IID 5233; assay: as above; conditions: Moraxella catarrhalis, IID5233, read-out: Antimicrobial spectrum MIC
Description: as §1

[3] = system: Enterococcus faecalis CSJ 1212; assay: as above; conditions: CSJ1212, read-out: Antimicrobial spectrum MIC
Description: as §1

[4] = system: Enterococcus faecalis RIMD 3116001; assay: as above; conditions: RIMD3116001, read-out: Antimicrobial spectrum MIC
Description: as §1

[5] = system: Escherichia coli IFO 12734; assay: as above; conditions: IFO12734, read-out: Antimicrobial spectrum MIC
Description: as §1

[6] = system: Haemophilus influenzae IID 984; assay: as above; conditions: IID984, read-out: Antimicrobial spectrum MIC
Description: as §1

[7] = system: Klebsiella pneumoniae IID 865; assay: as above; conditions: IID865, read-out: Antimicrobial spectrum MIC
Description: as §1

[8] = system: Micrococcus luteus KI 3122; assay: as above; conditions: KI3122, read-out: Antimicrobial spectrum MIC
Description: as §1

[9] = system: Pseudomonas aeruginosa CSJ 1853; assay: as above; conditions: CSJ1853, read-out: Antimicrobial spectrum MIC
Description: as §1

[10] = system: Staphylococcus aureus Clin-211(MRSA); assay: as above; conditions: read-out: Antimicrobial spectrum MIC
Description: as §1

[11] = system: Staphylococcus aureus IFO 13276; assay: as above; conditions: IFO13276, read-out: Antimicrobial spectrum MIC
Description: as §1

[12] = system: Staphylococcus aureus IID 803(Smith); assay: as above; conditions: IID803, read-out: Antimicrobial spectrum MIC
Description: as §1

[13] = system: Staphylococcus aureus JCM 2874; assay: as above; conditions: JCM2874, read-out: Antimicrobial spectrum MIC
Description: as §1

[14] = system: Staphylococcus epidermidis IFO 12993; assay: as above; conditions: IFO12993, read-out: Antimicrobial spectrum MIC
Description: as §1

[15] = system: Streptococcus pneumoniae IID 553; assay: as above; conditions: IID553, read-out: Antimicrobial spectrum MIC
Description: as §1

[16] = system: Bacteroides fragilis GAI 0675; assay: in vitro antibacterial activity on anaerobic bacteria (MIC); conditions: GAI0675; Bacteroides fragilis GAI 0675, anaerobic; read-out: Antimicrobial spectrum MIC
Description: as §1

[17] = system: Bacteroides thetaiotaomicron ATCC 29741; assay: as above; conditions: ATCC29741; Bacteroides thetaiotaomicron ATCC 29741, anaerobic; read-out: Antimicrobial spectrum MIC
Description: as §1

[18] = system: Propionibacterium acnes JCM 6425; assay: as above; conditions: Cutibacterium acnes, JCM6425; Propionibacterium acnes JCM 6425, anaerobic; read-out: Antimicrobial spectrum MIC
Description: as §1

SMILES	MIC [1] [µg/mL]	MIC [2] [µg/mL]	MIC [3] [µg/mL]	MIC [4] [µg/mL]	MIC [5] [µg/mL]	MIC [6] [µg/mL]	MIC [7] [µg/mL]	MIC [8] [µg/mL]	MIC [9] [µg/mL]	MIC [10] [µg/mL]	MIC [11] [µg/mL]	MIC [12] [µg/mL]	MIC [13] [µg/mL]	MIC [14] [µg/mL]	MIC [15] [µg/mL]	MIC [16] [µg/mL]	MIC [17] [µg/mL]	MIC [18] [µg/mL]
Cc1c(-c2ccc(CN)cc2)ccn2c(=O)c(C(=O)O)cc(C3CC3)c12 [Example 24, 8-(4-aminomethylphenyl)-1-cyclopropyl-9-methyl-4-oxo-4H-quinolizine-3-carboxylic acid]	0.016 (≈ 0.0459 µM)	0.063 (≈ 0.181 µM)	0.25 (≈ 0.718 µM)	0.25 (≈ 0.718 µM)	0.063 (≈ 0.181 µM)	0.016 (≈ 0.0459 µM)	0.008 (≈ 0.023 µM)	0.5 (≈ 1.44 µM)	0.5 (≈ 1.44 µM)	0.5 (≈ 1.44 µM)	0.031 (≈ 0.089 µM)	0.031 (≈ 0.089 µM)	0.031 (≈ 0.089 µM)	0.063 (≈ 0.181 µM)	0.125 (≈ 0.359 µM)	0.25 (≈ 0.718 µM)	0.5 (≈ 1.44 µM)	0.125 (≈ 0.359 µM)
Cc1ccc(-c2ccn3c(=O)c(C(=O)O)cc(C4CC4)c3c2C)cc1 [Example 31, 1-Cyclopropyl-9-methyl-4-oxo-8-p-tolyl-4H-quinolizine-3-carboxylic acid]	≤ 0.004	0.031 (≈ 0.093 µM)	0.25 (≈ 0.75 µM)	0.5 (≈ 1.5 µM)	0.125 (≈ 0.375 µM)	0.125 (≈ 0.375 µM)	0.031 (≈ 0.093 µM)	0.125 (≈ 0.375 µM)	0.5 (≈ 1.5 µM)	0.125 (≈ 0.375 µM)	0.008 (≈ 0.024 µM)	0.008 (≈ 0.024 µM)	0.008 (≈ 0.024 µM)	0.016 (≈ 0.048 µM)	0.5 (≈ 1.5 µM)	0.25 (≈ 0.75 µM)	1 (≈ 3 µM)	0.25 (≈ 0.75 µM)
COc1ccc(-c2ccn3c(=O)c(C(=O)O)cc(C4CC4)c3c2C)cn1 [Example 32, 1-Cyclopropyl-8-(6-methoxypyridin-3-yl)-9-methyl-4-oxo-4H-quinolizine-3-carboxylic acid]	≤ 0.004	0.031 (≈ 0.0885 µM)	0.125 (≈ 0.357 µM)	0.25 (≈ 0.714 µM)	0.25 (≈ 0.714 µM)	0.063 (≈ 0.18 µM)	0.016 (≈ 0.0457 µM)	0.25 (≈ 0.714 µM)	1 (≈ 2.85 µM)	0.125 (≈ 0.357 µM)	0.008 (≈ 0.0228 µM)	0.008 (≈ 0.0228 µM)	0.016 (≈ 0.0457 µM)	0.016 (≈ 0.0457 µM)	0.5 (≈ 1.43 µM)	0.063 (≈ 0.18 µM)	0.25 (≈ 0.714 µM)	0.008 (≈ 0.0228 µM)

The next lines start with the values.

MIC [1] [µg/mL]	MIC [2] [µg/mL]	MIC [3] [µg/mL]	MIC [4] [µg/mL]	MIC [5] [µg/mL]	MIC [6] [µg/mL]	MIC [7] [µg/mL]	MIC [8] [µg/mL]	MIC [9] [µg/mL]	MIC [10] [µg/mL]	MIC [11] [µg/mL]	MIC [12] [µg/mL]	MIC [13] [µg/mL]	MIC [14] [µg/mL]	MIC [15] [µg/mL]	MIC [16] [µg/mL]	MIC [17] [µg/mL]	MIC [18] [µg/mL]	SMILES
≤ 0.004	0.016 (≈ 0.0479 µM)	0.125 (≈ 0.374 µM)	0.25 (≈ 0.748 µM)	0.125 (≈ 0.374 µM)	0.016 (≈ 0.0479 µM)	0.008 (≈ 0.0239 µM)	0.125 (≈ 0.374 µM)	0.25 (≈ 0.748 µM)	0.125 (≈ 0.374 µM)	0.008 (≈ 0.0239 µM)	0.008 (≈ 0.0239 µM)	0.008 (≈ 0.0239 µM)	0.016 (≈ 0.0479 µM)	0.25 (≈ 0.748 µM)	0.125 (≈ 0.374 µM)	0.25 (≈ 0.748 µM)	0.063 (≈ 0.188 µM)	Cc1c(-c2cccc(N)c2)ccn2c(=O)c(C(=O)O)cc(C3CC3)c12 [Example 26, 8-(3-aminophenyl)-1-cyclopropyl-9-methyl-4-oxo-4H-quinolizine-3-carboxylic acid]
≤ 0.004	≤ 0.004	0.031 (≈ 0.0927 µM)	0.063 (≈ 0.188 µM)	0.063 (≈ 0.188 µM)	0.008 (≈ 0.0239 µM)	≤ 0.004	0.063 (≈ 0.188 µM)	0.25 (≈ 0.748 µM)	0.031 (≈ 0.0927 µM)	≤ 0.004	≤ 0.004	≤ 0.004	0.008 (≈ 0.0239 µM)	0.125 (≈ 0.374 µM)	0.031 (≈ 0.0927 µM)	0.125 (≈ 0.374 µM)	0.031 (≈ 0.0927 µM)	Cc1c(-c2ccc(N)cc2)ccn2c(=O)c(C(=O)O)cc(C3CC3)c12 [Example 27, 8-(4-Aminophenyl)-1-cyclopropyl-9-methyl-4-oxo-4H-quinolizine-3-carboxylic acid]
≤ 0.004	0.031 (≈ 0.0858 µM)	0.125 (≈ 0.346 µM)	0.25 (≈ 0.692 µM)	0.25 (≈ 0.692 µM)	0.25 (≈ 0.692 µM)	0.031 (≈ 0.0858 µM)	0.25 (≈ 0.692 µM)	2 (≈ 5.53 µM)	0.125 (≈ 0.346 µM)	0.008 (≈ 0.0221 µM)	0.008 (≈ 0.0221 µM)	0.008 (≈ 0.0221 µM)	0.031 (≈ 0.0858 µM)	0.25 (≈ 0.692 µM)	0.125 (≈ 0.346 µM)	0.25 (≈ 0.692 µM)		CC(=O)c1ccc(-c2ccn3c(=O)c(C(=O)O)cc(C4CC4)c3c2C)cc1 [Example 28, 8-(4-Acetylphenyl)-1-cyclopropyl-9-methyl-4-oxo-4H-quinolizine-3-carboxylic acid]
